Experimental data taken from patent US11259522B2, “Control of resistant pests” (priority 2017, dated 2022).
Converted amounts (≈) assume the structure as drawn. “And” between values parts separate entries of the source, which are not always exact repeats. Identical values can stand only once. Like-named read-outs stand apart in the source and are kept apart here.

How the values were obtained:
[1] = tested on: Rhyzopertha dominica strain QRD1440 (resistant to OP protectants and pyrethroids); assay: Grain protectant bioassay on treated wheat, resistant lesser grain borer; details: Example 5, QRD1440, 1 ppm on wheat, replicates A, B, C
[2] = tested on: Aedes aegypti Liverpool strain (insecticide susceptible, LVP) L3 larvae; assay: Mosquito larval dose response assay, LVP strain; details: read-out: Lethal Concentration (LC50) LVP Strain
[3] = tested on: Aedes aegypti PRS Puerto Rican strain (synthetic pyrethroid resistant) L3 larvae; assay: Mosquito larval dose response assay, PRS strain; details: read-out: Lethal Concentration (LC50) PRS Strain
[4] = tested on: M. persicae (green peach aphid) population resistant to carbamates and synthetic pyrethroids; assay: Leaf dip bioassay, green peach aphid, resistant population; assay type: in vivo, Myzus persicae; details: Resistant population; 0.025-2500.0 mg a.i./L; 48 and 96 hours
Experimental: (§1) Each colony was maintained separately on bok choi plants ([…]) within an exclusion cage in a constant temperature room at 24° C. with a photoperiod of 16:8 LD.
(§2) Laboratory bioassays were used to determine the efficacy of flavesone against M. persicae following the leaf dip method described in Moores et al. (1994, Pesticide Biochemistry and Physiology, 49, 114-120). A pilot study was first conducted which confirmed that the leaf dip method was appropriate to elicit a clear dose response for Flavocide 500EW against M. persicae, and to determine the appropriate rate range and timing of mortality assessments (scored at 24, 48, 72 & 96 hours) (data not shown).
(§3) Bioassays were then conducted to assess the efficacy of flavesone against a susceptible and resistant population of M. persicae, and to calculate LC values. The efficacy of a conventional insecticide, pirimicarb, was tested for comparison. Nine concentrations of flavesone ranging from 1×10^−3 to 10 times the proposed field rate (Table 15), and six concentrations of pirimicarb were serially diluted and tested, along with a water control, against the susceptible and resistant aphid populations. Leaf discs (25 mm diameter) cut from bok choi leaves were submerged for 1 second in the insecticide solutions, or in the water control, and placed adaxial side up on 10 g/L agar in 35 mm petri dishes. Six replicate leaf discs were prepared per treatment. Once leaves were air-dry, eight M. persicae nymphs were transferred to each insecticide-dipped leaf disc using a fine-haired paintbrush.
(§4) After aphid introduction, each petri dish was inverted onto a lid containing a 25 mm diameter filter paper to control humidity. All petri dishes were then placed into an incubator held at 18° C.±2° C. with a photoperiod of 16:8 LD cycle. At 48 & 96 hours, aphids were scored as alive (vibrant and moving freely), dead (not moving over a 5 second period), or incapacitated (inhibited movement).
(§5) Dose-response curves were generated by plotting percentage mortality against log concentration. Mortality data was analysed using a logistic regression model with random effects. Logistic regression is suited for the analysis of binary response data (i.e. dead/alive) with the random effect component of the model controlling for the non-independence of mortality scores within replicates. […] Population differences were tested by comparing the change in model deviance with and without the population factor (different regression intercepts for each population). Differences in regression slopes between populations were tested by comparing the change in model deviance with and without the population×dose interaction term.

[5] = tested on: M. persicae (green peach aphid) insecticide-susceptible population; assay: Leaf dip bioassay, green peach aphid, susceptible population; assay type: in vivo, Myzus persicae
Experimental: as §1, §2, §3, §4, §5

[6] = Susceptible population, 96 hours exposure

SMILES | F1 Progeny count No. dead/total ([1]; further 6 weeks) | 14 Day adult mortality No. dead (total) [1] | LC50 ([2]; 24 h) | LC50 ([2]; 48 h) | LC50 ([2]; 72 h) | LC50 ([3]; 24 h) | LC50 ([3]; 48 h) | LC50 ([3]; 72 h) | mortality observed [4] | LC50 ([5]; Myzus persicae, foliar, 96 h, read-out: LC50 (mg a.i./L)) | LC90 (mg a.i./L) [5, 6] | LC99 (mg a.i./L) [5, 6]
CC1(C)[C@H](C(=O)O[C@H](C#N)c2cccc(Oc3ccccc3)c2)[C@@H]1C=C(Br)Br [Deltamethrin, deltamethrin, reference compound] | 0/142 and 0/79 and 2/292 | 1/50 (2×) and 0/50 | 0.0119 µg/mL (≈ 0.0236 µM) | 0.0049 µg/mL (≈ 0.0097 µM) | 0.0037 µg/mL (≈ 0.00732 µM) | 0.0522 µg/mL (≈ 0.103 µM) | 0.0501 µg/mL (≈ 0.0992 µM) | 0.0412 µg/mL (≈ 0.0816 µM) | – | – | – | –
CC1(C)C(C=C(Cl)Cl)C1C(=O)OCc1cccc(Oc2ccccc2)c1 (stereo not drawn) [Permethrin, permethrin] | – | – | 0.0219 µg/mL (≈ 0.056 µM) | 0.0162 µg/mL (≈ 0.0414 µM) | 0.0166 µg/mL (≈ 0.0424 µM) | 0.164 µg/mL (≈ 0.42 µM) | 0.15 µg/mL (≈ 0.385 µM) | 0.128 µg/mL (≈ 0.327 µM) | – | – | – | –
Cc1nc(N(C)C)nc(OC(=O)N(C)C)c1C [Pirimicarb, pirimicarb, reference compound] | – | – | – | – | – | – | – | – | Very low mortality | 18.5 µg/mL (≈ 77.6 µM) | 78.9 mg a.i./L | 384 mg a.i./L
